Measured values published in publication PMC8807399, “Synthesis, Characterization, and in vivo Evaluation of a Novel Potent Autotaxin-Inhibitor” (Frontiers in Pharmacology, 2022).

Assays:
[1] = In vitro microsomal stability, human; assay type: in vitro ADME; settings: human microsomes, 1 µM; value of 10 = low clearance, essentially below detection limit
Experimental: Incubations of a test compound at a concentration of 1 µM with microsomes (0.5 mg/ml) from the appropriate species (human, mouse, or rat) plus cofactor NADPH were performed in 96-well plates at 37°C on a TECAN automated liquid handling system (Tecan Group Ltd., Männedorf, Switzerland). After pre-incubation of the test compound with the microsomes for 10 min, the enzymatic reaction was started by the addition of cofactors. Aliquots of the incubations are removed at 1, 3, 6, 9, 15, 25, 35, and 45 min and are then quenched with 1:3 (v/v) acetonitrile containing internal standards. Samples were then cooled and centrifuged before analysis of the supernatant by LC-MS/MS. Logarithmic Peak area ratios (test compound peak area/internal standard peak area) were plotted against incubation time and a linear fit made to the data with emphasis upon the initial rate of compound disappearance. The slope of the fit was then used to calculate the intrinsic clearance: Clint (µL/min/mg protein) = −slope (min-1) * 1,000/[protein concentration (mg/ml)].

[2] = system: I/R model rats; assay: Retinal ischemia/reperfusion (I/R) model; assay type: in vivo, rat; settings: for ERG b-wave amplitude: I/R + ATX-i eyes vs control; for ERG a-wave amplitude: I/R + ATX-i group vs control
Experimental: Diets containing compound 13 were manufactured by ssniff Spezialdiäten GmbH (Soest, Germany). Calculations of the daily doses were based on average food intake of rats used in the studies. The regular chow diet for the 60 mg/kg dose was calculated as 8.5 kg and mixed with a solution of 13 in ethanol (4.8%, w/w). The amount of 13 used was 1.0 g per kg of food. After mixing, ethanol was removed in vacuo until dryness. For the preparation of the 20 mg/kg dose, the same procedure was used by applying 0.333 g of 13 per kg of food.
The oral treatment with the ATX-inhibitor 13 (ATX-i; 20 mg/kg; Roche) started 7 days prior to immunization and 3 days prior I/R induction and continued throughout the study. The regular chow diet for the treatment groups was replaced with the same chow diet containing the treatment substance.
An established I/R model was used ([Schmid et al., 2014]; [Renner et al., 2017]). Therefore, rats were anesthetized with a ketamine/xylazine/vetranquil cocktail (0.65/0.65/0.2 ml). One eye per animal was dilated with 5% tropicamide (Pharma Stulln, Stulln, Germany) and anesthetized topically with conjuncain (Bausch and Lomb, Berlin, Germany). Additionally, a pain medication injection of metamizole (Novalgin; Zentiva, Frankfurt am Main, Germany) was administered subcutaneously. IOP was raised to 140 mmHg for 60 min by elevating a saline reservoir connected to a needle, which was placed into the anterior chamber of the eye. Retinal ischemia was confirmed by observing whitening of the retina via an ophthalmoscope (Mini 300; Heine Optotechnik, Herrsching, Germany). Reperfusion was later reassured by observing the returning blood flow. The contralateral eye was used as a control. Analyses were performed 7 and 14 days after ischemia induction.
ERG measurements were performed on all eyes 7 and 14 days after I/R induction as previously described ([Schmid et al., 2014]; [Palmhof et al., 2018]). Before performing the ERG under dim red light, rats were dark adapted overnight. The readings were done using a full-field flash electroretinograph (HMs ERG system, OcuScience, Henderson, NV, United States). After anesthesia with a ketamine/xylazine cocktail (100/4 mg/kg) eyes were dilated and topically anesthetized. Reference electrodes were placed subcutaneously below the right and left ear and a ground electrode was placed in the base of the tail. Silver thread recording electrodes were placed in the center of the cornea. Scotopic flash ERGs were recorded at 0.1, 0.3, 1, 3, 10, and 25 cd*s/m^2 for each eye (7 days: 5-6 eyes/group; 14 days: 6-7 eyes/group). Signals obtained from the corneal surface were then amplified, digitized, and averaged using ERG View 4.380R software (OcuScience).
After explantation, eyes and optic nerves were fixed in 4% paraformaldehyde for 60 min (eyes) or 120 min (optic nerves) and then treated with 30% sucrose overnight. Afterwards, the retinas and optic nerves were embedded in NEG-50 Tissue-Tek medium (Thermo Fisher, Waltham, MA, United States). Cryo-cross sections of the eyes (10 µm) or longitudinal sections of the optic nerves (4 µm) were cut on a microtome (Thermo Fisher), mounted on Histobond Superfrost^+ slides (Thermo Fisher) and fixed in ice cold acetone for 10 min.
Retinal cross-sections from the I/R studies were stained with hematoxylin and eosin (H&E) to visualize retinal layers and changes in the thickness of the layers using standard protocols (7 days: 5-6 retinas/group; 14 days: 6-7 retinas/group). The thickness of the ganglion cell layer (GCL) was analyzed with the measuring tool of the ZEN2012 image analysis software (Zeiss, Oberkochen, Germany). Therefore, they were measured three times and the value was averaged ([Palmhof et al., 2019]).
Longitudinal optic nerve sections (EAG: 5-6 nerves/group, I/R 14 days: 6-7 nerves/group) were stained with H&E and luxol fast blue (LFB). […]

[3] = target: T1, HDAC11 (Homo sapiens, UniProt Q96DB2); assay: Off-target screen HDAC11; assay type: biochemical; settings: 10 µM; single point, duplicates
T1 construct: purchased Eurofins CEREP SA

[4] = target: T2, S1P1 (Homo sapiens, UniProt P21453); assay: Off-target screen S1P1, agonist mode; assay type: cell-based; settings: 10 µM, single point, duplicates
T2 construct: purchased Eurofins CEREP SA

[5] = target: T3, S1P2 (Homo sapiens, UniProt O95136); assay: Off-target screen S1P2, antagonist mode; assay type: cell-based; settings: 10 µM, single point, duplicates
T3 construct: purchased Eurofins CEREP SA

[6] = system: Nicotinic receptor (muscle); assay: Off-target screen Nicotinic receptor (muscle); settings: 10 µM; single point, duplicates

T3 sequence (O95136 whole entry): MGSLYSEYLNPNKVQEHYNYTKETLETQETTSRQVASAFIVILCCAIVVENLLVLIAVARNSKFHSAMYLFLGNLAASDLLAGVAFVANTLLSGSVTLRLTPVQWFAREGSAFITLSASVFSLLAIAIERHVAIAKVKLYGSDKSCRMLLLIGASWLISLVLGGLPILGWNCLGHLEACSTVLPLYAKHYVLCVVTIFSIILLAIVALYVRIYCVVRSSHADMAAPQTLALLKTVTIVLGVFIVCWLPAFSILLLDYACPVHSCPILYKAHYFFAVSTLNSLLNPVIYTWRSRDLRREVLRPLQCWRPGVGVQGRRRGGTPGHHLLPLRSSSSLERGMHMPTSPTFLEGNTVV
T2 sequence (P21453 whole entry): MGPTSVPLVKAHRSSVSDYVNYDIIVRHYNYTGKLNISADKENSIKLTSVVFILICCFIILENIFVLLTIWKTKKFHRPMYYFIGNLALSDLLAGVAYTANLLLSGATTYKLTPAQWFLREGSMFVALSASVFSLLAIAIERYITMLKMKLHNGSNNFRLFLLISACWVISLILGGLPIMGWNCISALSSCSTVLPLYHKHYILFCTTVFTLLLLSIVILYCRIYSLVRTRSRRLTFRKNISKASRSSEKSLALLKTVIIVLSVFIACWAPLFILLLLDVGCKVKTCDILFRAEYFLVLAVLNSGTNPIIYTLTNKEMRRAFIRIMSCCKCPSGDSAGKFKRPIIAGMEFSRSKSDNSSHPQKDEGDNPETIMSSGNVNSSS
T1 sequence (Q96DB2 whole entry): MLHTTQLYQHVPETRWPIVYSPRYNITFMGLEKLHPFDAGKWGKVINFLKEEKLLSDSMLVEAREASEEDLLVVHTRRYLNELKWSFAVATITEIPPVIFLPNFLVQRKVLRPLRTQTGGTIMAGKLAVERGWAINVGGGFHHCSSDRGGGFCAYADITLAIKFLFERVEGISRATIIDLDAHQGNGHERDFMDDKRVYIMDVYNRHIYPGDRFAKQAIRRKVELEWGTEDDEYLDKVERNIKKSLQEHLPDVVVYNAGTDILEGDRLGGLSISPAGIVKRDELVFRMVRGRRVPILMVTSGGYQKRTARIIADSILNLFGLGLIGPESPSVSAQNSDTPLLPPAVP

## O=C(OCc1ccc(OC(F)(F)F)cc1)N1C[C@@H]2CN(C(=O)c3ccc4[nH]nnc4c3)C[C@H]2C1 [Compound 13, (3aS,6aS)-5-(1H-Benzotriazole-5-carbonyl)-hexahydro-pyrrolo[3,4-c]pyrrole-2-carboxylic acid 4-trifluoromethoxy-benzyl ester]
[1]
  Mic CL h: 10/10/10 µL/m/mg prot
[2]; 7 days (p < 0.001)
  ERG b-wave amplitude: significantly lower
[2]; 14 days (p < 0.001)
  ERG b-wave amplitude: significantly declined
[2]; 7 days, all light intensities (p < 0.050)
  ERG a-wave amplitude: significant decrease
[2]; 14 days, all light intensities (p > 0.050), vs I/R increased at 0.1 cd s/m^2 (p = 0.027)
  ERG a-wave amplitude: comparable to the control ones
[2]; I/R + ATX-i group, 20 mg/kg food admix, 7 days, I/R 4.03 ± 0.84, control 6.28 ± 1.57
  GCL thickness: 4.34 ± 1.63 µm
[2]; I/R + ATX-i group, 7 days, I/R 0.18 ± 0.17, control 1.39 ± 0.52
  β-III tubulin protein level (Western Blot), retina: 0.28 ± 0.30
[2]; I/R + ATX-i group, 7 days, I/R 0.61 ± 0.05, control 0.47 ± 0.11
  Iba1 protein level (Western Blot), retina: 0.50 ± 0.21
[2]; I/R + ATX-i group, 7 days, I/R 3.44 ± 1.52, control 2.46 ± 1.41
  GFAP+ area, retina: 2.98 ± 1.13 area [%]/section
[2]; I/R + ATX-i group, 7 days, I/R 4.00 ± 1.95, control 0.71 ± 0.33
  GFAP protein level (Western Blot), retina: 3.90 ± 1.14
[2]; I/R + ATX-i group, 7 days, I/R 5.97 ± 1.93, control 2.62 ± 1.59
  Cleaved caspase 3+ apoptotic RGCs: 6.21 ± 1.62 cells/mm
[2]; I/R + ATX-i group, 7 days, I/R 10.95 ± 2.48, control 48.29 ± 3.94, p = 0.008 vs I/R
  Brn-3a+ RGC number, retina: 17.61 ± 1.63 cells/mm
[2]; I/R + ATX-i group, 7 days, I/R 34.74 ± 6.57, control 0.81 ± 0.91, p = 0.045 vs I/R
  ED1+ and Iba1+ co-labeled cells, retina: 26.91 ± 4.48 cells/mm
[2]; I/R + ATX-i group, 7 days, I/R 38.44 ± 7.75, control 5.65 ± 2.29, p = 0.045 vs I/R
  Iba1+ microglia, retina: 29.04 ± 5.19 cells/mm
[2]; I/R + ATX-i group, 14 days, I/R 0.06 ± 0.03, control 0.60 ± 0.08
  β-III tubulin protein level (Western Blot), retina: 0.13 ± 0.08
[2]; I/R + ATX-i group, 14 days, I/R 0.95 ± 0.54, control 0.28 ± 0.19
  Iba1 protein level (Western Blot), retina: 0.69 ± 0.44
[2]; I/R + ATX-i group, 14 days, I/R 1.60 ± 0.19, control 0.19 ± 0.06
  GFAP protein level (Western Blot), retina: 1.31 ± 0.66
[2]; I/R + ATX-i group, 14 days, I/R 2.76 ± 0.16, control 5.28 ± 0.43, p = 0.003 vs I/R
  GCL thickness: 3.54 ± 0.34 µm
[2]; I/R + ATX-i group, 14 days, I/R 5.28 ± 0.76, control 0.06 ± 0.06
  Activated microglia (ED1+ and Iba1+), optic nerve: 5.71 ± 1.04 cells/image
[2]; I/R + ATX-i group, 14 days, I/R 5.38 ± 0.83, control 2.58 ± 0.72
  Cleaved caspase 3+ cells: 5.02 ± 1.52 cells/mm
[2]; I/R + ATX-i group, 14 days, I/R 5.65 ± 0.75, control 2.74 ± 1.06
  Iba1+ cells, optic nerve: 6.10 ± 1.09 cells/image
[2]; I/R + ATX-i group, 14 days, I/R 5.81 ± 2.85, control 56.32 ± 11.74, p = 0.017 vs I/R
  Brn-3a+ RGC number, retina: 21.62 ± 8.84 cells/mm
[2]; I/R + ATX-i group, 14 days, I/R 7.02 ± 2.71, control 3.35 ± 0.98
  GFAP+ area, retina: 5.01 ± 1.70 area [%]/section
[2]; I/R + ATX-i group, 14 days, I/R 34.20 ± 9.12, control 2.99 ± 1.26
  ED1+ and Iba1+ activated microglia, retina: 28.27 ± 7.63 cells/mm
[2]; I/R + ATX-i group, 14 days, I/R 45.5 ± 11.78, control 26.28 ± 3.33
  Iba1+ microglia, retina: 41.17 ± 9.33 cells/mm
[2]; I/R + ATX-i group, 14 days, score 0-2, I/R 1.13 ± 0.13, control 0.89 ± 0.30
  GFAP score, optic nerve: 1.23 ± 0.25
[2]; I/R + ATX-i group, 14 days, score 0-2, I/R 1.19 ± 0.25, control 0.54 ± 0.42
  Optic nerve LFB score: 1.09 ± 0.17
[2]; I/R + ATX-i group, 14 days, score 0-2, I/R 1.27 ± 0.31, control 0.47 ± 0.27
  Optic nerve SMI-32 score: 1.05 ± 0.21
[2]; I/R + ATX-i group, 14 days, score 0-4, I/R 2.43 ± 0.37, control 0.77 ± 0.27
  Optic nerve H&E score: 2.25 ± 0.44
[3]
  HDAC11 (h) [% inhib]: 0 % inhib
[4]
  S1P1 (h), agonist mode [% pos ctrl]: 5 % pos ctrl
[5]
  S1P2 (h), antago. mode [% inhib]: 45 % inhib
[6]
  Nicotinic receptor (muscle) (h) [% inhib]: 3 % inhib
